Where two headings read alike, the source gives them in different places.
Columns and labels:
[1] = test system: hypothermia induced by reserpine; assay: Anti-reserpine activity: antagonistic effect on hypothermia induced by reserpine; type: in vivo, male STD-ddY strain mice; settings: p.o.; for ED50: Mus musculus, po, 4 h, reserpine 5 mg/kg i.p.
Procedure: Pharmacological experiments have been done on the compound of the present invention, some known and novel analogous compounds and an antidepressant on the market, as mentioned below. In the experiments, ED50 was calculated by Litchfield-Wilcoxon method. This effect was examined according to the method of […]. 2, 725 (1963)], using male STD-ddY strain mice weighing 20-25 g. […] Rectal temperature of each mouse was measured 4 hours later with a thermister (Shibaura Electric, BMG III-130).

[2] = test system: catalepsy induced by reserpine; assay: Anti-reserpine activity: antagonistic effect on catalepsy induced by reserpine; type: in vivo, male STD-ddY strain mice; settings: p.o.; for ED50: Mus musculus, po, 1 h, reserpine 5 mg/kg i.p.
Procedure: In the experiments, ED50 was calculated by Litchfield-Wilcoxon method. Male STD-ddY strain mice, weighing […], were used in groups of 10 mice each. […] The mice were tested for catalepsy 1 hour after the administration of test compounds. ED50 was calculated for each compound.

[3] = test system: ptosis induced by tetrabenazine; assay: Anti-tetrabenazine activity: antagonistic effect on ptosis induced by tetrabenazine; type: in vivo, male STD-ddY strain mice; settings: Mus musculus, po; tetrabenazine 70 mg/kg i.p.; Table 2
Procedure: Pharmacological experiments have been done on the compound of the present invention, some known and novel analogous compounds and an antidepressant on the market, as mentioned below. In the experiments, ED50 was calculated by Litchfield-Wilcoxon method. Male STD-ddY strain mice, weighing 20-25 g, were used in groups of 10 mice each. […] Two hours after the tetrabenazine injection, the degree of eyelid closure (ptosis) was assessed on the basis of macroscopic scoring (0: no closure of the eyelid, 1: 1/4 closure, 2: 2/4 closure, 3: 3/4 closure and 4: complete closure), essentially according to the method of P. A. J. Janssen [Arzneim. Forsch. 15, 104 (1965)]. ED50 was calcuated for each compound.

[4] = test system: mouse-killing behavior of olfactory bulb-ablated rats; assay: Suppressing effect on mouse-killing behavior in olfactory bulb-ablated rats; type: in vivo, male Wistar strain rats
Procedure: (§1) Pharmacological experiments have been done on the compound of the present invention, some known and novel analogous compounds and an antidepressant on the market, as mentioned below. In the experiments, ED50 was calculated by Litchfield-Wilcoxon method.
Male Wistar strain rats, weighing 240-260 g, which had developed mouse-killing behavior after ablation of the olfactory bulb according to the method of Z. P. Horovitz [Int. J. Neuropharmacol. 5, 405 (1966)], were used in groups of 15 animals each. Each test compound was given intraperitoneally to the rats in 6 different doses, and 1 hours later the rats were each tested as to whether they killed a mouse or not. ED50 was calculated for each compound.

[5] = test system: spontaneous locomotor activity; assay: Inhibitory effect on spontaneous locomotor activity; type: in vivo, male STD-ddY strain mice
Procedure: as §1
Male mice of STD-ddY strain, weighing 20-25 g, were used in groups of 5 mice each. Each test compound was given orally to the mice in 5 different doses, and 2 hours later the spontaneous locomotor activity of each mouse was measured for 3 minutes by means of an Animex locomotor activity meter (made by Farad Electronics). ED50 was calculated for each compound. The ED50 means the dose of test compound in which the locomotor activity was reduced to 50% of that of control group receiving saline.

[6] = test system: methamphetamine-induced locomotor activity; assay: Anti-methamphetamine effect (inhibitory effect on methamphetamine-induced locomotor activity); type: in vivo, male STD-ddY strain mice
Procedure: as §1
Male STD-ddY strain mice, weighing 20-25 g, were used in groups of 10 mice each. Groups of mice were injected intraperitoneally with 4 mg/kg of methamphetamine, and 30 minutes later each test compound was injected intraperitoneally in 3 different doses. One hour after the injection of methamphetamine, locomotor activity of each mouse was measured for 10 minutes with an Animex locomotor activity meter.

[7] = test system: brain homovanillic acid (HVA); assay: Effect on brain monoamine metabolites: HVA; type: in vivo, male Wistar strain rats; settings: 100 mg/kg p.o.; for Brain HVA, % of control: *P<0.01
Procedure: (§2) Each test compound was given orally to the rats in a dose of 100 mg/kg and, 1, 3 and 6 hours later the rats were sacrificed. […] The concentrations of the monoamine metabolites were calculated in terms of ng/g wet brain tissue and expressed as % of the concentrations of controls receiving saline.

[8] = test system: brain 3-methoxy-4-hydroxyphenylethylene glycol sulfate (MOPEG-SO4); assay: Effect on brain monoamine metabolites: MOPEG-SO4; type: in vivo, male Wistar strain rats; settings: 100 mg/kg p.o.; for Brain MOPEG-SO4, % of control: *P<0.01
Procedure: as §2

[9] = test system: brain 5-hydroxyindoleacetic acid (5-HIAA); assay: Effect on brain monoamine metabolites: 5-HIAA; type: in vivo, male Wistar strain rats; settings: 100 mg/kg p.o.; for Brain 5-HIAA, % of control: *P<0.01
Procedure: as §2

tremorine-induced tremor = assay: Anti-tremorine activity (antagonistic effect on tremorine-induced tremor); type: in vivo, male STD-ddY strain mice
Procedure: as §1
Male STD-ddY strain mice, weighing 20-25 g, were used in groups of 5 mice each. Each test compound was given orally to the mice in 5 different doses, and 2 hours later 20 mg/kg of tremorine was injected intraperitoneally. Half an hour after the injection of tremorine, each mouse was examined macroscopically for tremor severity, according to the rating scale with the scores 0, 1, 2, and 3 depending on the severity. ED50 was calculated for each compound. The ED50 means the dose of test compound in which the tremorine-induced tremor was inhibited by 50% in severity.

Acute toxicity = settings: mouse, in vivo, 7 days observation
Procedure: (§3) Male STD-ddY strain mice, weighing 20-25 g, were used. Each test compound was given orally or intraperitoneally to the mice (each group: 10 mice) in 5 to 7 different doses, and their mortality was examined during the observation period of 7 days. The median lethal dose (LD50) was calculated for each compound by the probit method.

mice = assay: Acute toxicity; settings: mouse, in vivo
Procedure: as §3

With `CCN1CCN(c2cc(-c3ccccc3)c3ccccc3n2)CC1.Cl.Cl` [A, 2-(4-Ethyl-1-piperazinyl)-4-phenylquinoline dihydrochloride] the ED50 ([1]; Table 1, read-out: Anti-reserpine activity ED50, hypothermia) was 5.8 mg/kg, the ED50 ([1]; Table 2, read-out: Anti-reserpine ED50, hypothermia) was 5.8 mg/kg and the “Potency in antagonizing reserpine hypothermia relative to imipramine” value ([1]; versus imipramine) was 3.7 times more powerful. For the same compound, the ED50 ([2]; Table 1, read-out: Anti-reserpine activity ED50, catalepsy) was 1.5 mg/kg, the ED50 ([2]; Table 2, read-out: Anti-reserpine ED50, catalepsy) was 1.5 mg/kg and the “Potency in antagonizing reserpine catalepsy relative to imipramine” value ([2]; versus imipramine) was 25.5 times more powerful. The ED50 [3] was 1.8 mg/kg, the ED50 ([4]; Rattus norvegicus, ip, 1 hour after dosing, read-out: Suppressing effect on mouse-killing behavior of olfactory bulb-ablated rats, ED50) was 5 mg/kg and the “Suppression of mouse-killing behavior (in words)” value ([4]; versus imipramine, i.p.) was “as potent as imipramine”. For the same compound, the ED50 ([5]; Mus musculus, po, 2 hours after dosing, read-out: Spontan. locomotor ED50) was 58.7 mg/kg, the “Activity relative to chlorpromazine, spontaneous locomotor activity” value ([5]; fraction of chlorpromazine activity, p.o.) was “about 1/8” and the ED50 ([6]; Mus musculus, ip, methamphetamine 4 mg/kg i.p., read-out: Anti-methamphetamine ED50) was 8 mg/kg. For the same compound, the “Activity relative to chlorpromazine, methamphetamine-induced locomotor activity” value ([6]; fraction of chlorpromazine activity, i.p.) was “about 1/8”, the “Brain HVA concentration / dopamine turnover (in words)” value [7] was “marked increase in brain HVA concentration” and the “Brain HVA, % of control” value ([7]; 1 hour) was 193 % of control. For the same compound, the “Brain HVA, % of control” value ([7]; 3 hours) was 186 % of control, the “Brain HVA, % of control” value ([7]; 6 hours) was 186 % of control and the “Brain MOPEG-SO4 concentration / noradrenaline turnover (in words)” value [8] was “significant decrease in brain MOPEG-SO4 concentration”. For the same compound, the “Brain MOPEG-SO4, % of control” value ([8]; 1 hour) was 82 % of control, the “Brain MOPEG-SO4, % of control” value ([8]; 3 hours) was 70 % of control and the “Brain MOPEG-SO4, % of control” value ([8]; 6 hours) was 63 % of control. For the same compound, the “Brain 5-HIAA concentration / serotonin turnover (in words)” value [9] was “does not affect brain 5-HIAA concentration”, the “Brain 5-HIAA, % of control” value ([9]; 1 hour) was 118 % of control and the “Brain 5-HIAA, % of control” value ([9]; 3 hours) was 110 % of control. The “Brain 5-HIAA, % of control” value ([9]; 6 hours) was 116 % of control, the ED50 (tremorine-induced tremor; Mus musculus, po, tremorine 20 mg/kg i.p., read-out: Anti-tremorine activity ED50) was 9.7 mg/kg and the “Anti-tremorine activity (in words)” value (tremorine-induced tremor; p.o.) was “more potent than imipramine and almost comparable to biperiden”. The LD50 at 168 h (Acute toxicity; ip) was 119 mg/kg, the LD50 at 168 h (Acute toxicity; po) was 568 mg/kg and the “Acute toxicity (in words)” value (mice) was “comparable to or somewhat weaker than that of imipramine”.
